Test results from ChEMBL document CHEMBL5725873, “Heteroaryl compounds and their use as therapeutic drugs” (2018).

Biological target: T1, Tyrosine-protein kinase Mer (Homo sapiens, UniProt Q12866)
T1 sequence (Q12866 whole entry): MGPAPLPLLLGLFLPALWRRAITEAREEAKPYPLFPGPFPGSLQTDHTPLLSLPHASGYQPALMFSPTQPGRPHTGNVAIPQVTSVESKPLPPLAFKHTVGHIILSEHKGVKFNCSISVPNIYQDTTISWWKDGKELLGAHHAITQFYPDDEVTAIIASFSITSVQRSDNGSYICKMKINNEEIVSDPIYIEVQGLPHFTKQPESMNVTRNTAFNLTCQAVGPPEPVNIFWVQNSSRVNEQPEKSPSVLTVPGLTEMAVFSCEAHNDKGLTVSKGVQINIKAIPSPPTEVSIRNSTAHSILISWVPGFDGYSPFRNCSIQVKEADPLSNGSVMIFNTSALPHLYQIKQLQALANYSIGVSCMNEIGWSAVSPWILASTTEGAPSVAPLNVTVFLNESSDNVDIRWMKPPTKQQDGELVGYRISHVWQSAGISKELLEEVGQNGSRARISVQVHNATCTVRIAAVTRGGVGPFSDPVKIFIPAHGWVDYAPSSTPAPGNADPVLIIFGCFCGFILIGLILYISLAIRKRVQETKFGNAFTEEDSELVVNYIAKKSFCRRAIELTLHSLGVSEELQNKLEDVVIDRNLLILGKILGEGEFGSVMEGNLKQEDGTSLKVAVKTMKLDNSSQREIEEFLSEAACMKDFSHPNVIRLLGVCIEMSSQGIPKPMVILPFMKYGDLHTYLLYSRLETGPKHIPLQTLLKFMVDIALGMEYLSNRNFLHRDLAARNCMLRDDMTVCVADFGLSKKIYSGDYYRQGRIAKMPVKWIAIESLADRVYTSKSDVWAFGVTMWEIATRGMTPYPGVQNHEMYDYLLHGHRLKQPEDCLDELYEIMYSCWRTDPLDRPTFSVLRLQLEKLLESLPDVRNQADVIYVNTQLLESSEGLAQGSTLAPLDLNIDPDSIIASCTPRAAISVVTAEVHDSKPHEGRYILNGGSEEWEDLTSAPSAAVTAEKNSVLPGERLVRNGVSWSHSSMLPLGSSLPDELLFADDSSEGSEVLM
Test: TBD: TBD

Compound	IC50 [nM]
CN1CCN(Cc2ccc(-c3ccc(CO[C@H]4CCC[C@@H]4NC(=O)c4cc(-c5ccc(Cl)c(F)c5)cnc4N)cc3)cc2)CC1	< 10
C[C@@H](CNC(=O)c1cc(-c2cnn(C)c2)cnc1N)OCc1ccc(Cl)c(Cl)c1	> 1000
